According to patent US20240000075A1, “FUNGICIDAL ARYL AMIDINES” (CORTEVA AGRISCIENCE LLC, priority 2020, published 2024):
Read-outs that look alike come from different tables or passages of the source.

What was measured:
Phakopsora pachyrhizi = assay: Asian soybean rust, whole-plant fungicidal activity (PHAKPA); assay type: in vivo; settings: read-out: % Disease Control Rating PHAKPA
Description: Example C: Evaluation of Fungicidal Activity: Asian Soybean Rust (Phakopsora pachyrhizi; Bayer Code […]) Technical grades of materials were dissolved in acetone, which were then mixed with nine volumes of H2O containing 0.011% Tween-20. The fungicide solutions were applied onto soybean seedlings using an automated booth sprayer to run-off. All sprayed plants were allowed to air dry prior to further handling. Soybean plants (variety 'Williams 82') were grown in soil-less potting mix, with one plant per pot. Ten-day-old seedlings were used for testing. Plants were inoculated as described in Example A. Plants were incubated for 24 h in a dark dew room with 100% relative humidity then transferred to a growth room for disease to develop. Fungicide formulation and application were made as described in Example A. When disease symptoms were fully expressed, disease severity was assessed on the sprayed leaves on a scale of 0 to 100 percent. Percent disease control was calculated using the ratio of disease severity on treated plants relative to untreated plants.

Zymoseptoria tritici = assay: Septoria leaf blotch of wheat, whole-plant fungicidal activity (SEPTTR); assay type: in vivo, Zymoseptoria tritici on wheat plants (variety 'Yuma'); settings: read-out: % Disease Control Rating SEPTTR
Description: Example A: Evaluation of Fungicidal Activity: Septoria Leaf Blotch of Wheat (Zymoseptoria tritici; Bayer Code […]) Technical grades of materials were dissolved in acetone, which were then mixed with nine volumes of water (H2O) containing 110 ppm Triton X-100. The fungicide solutions were applied onto wheat seedlings using an automated booth sprayer to run-off. All sprayed plants were allowed to air dry prior to further handling. All fungicides were evaluated using the aforementioned method for their activity vs. all target diseases, unless stated otherwise. Wheat plants (variety 'Yuma') were grown from seed in a greenhouse in soil-less potting mix until the first leaf was fully emerged, with 7-10 seedlings per pot. These plants were inoculated with an aqueous spore suspension of Zymoseptoria tritici either 3 days prior to fungicide treatment (3 day curative; 3DC) or 1 day after fungicide treatment (1 day protectant; 1DP). After inoculation the plants were kept in 100% relative humidity for three days to permit spores to germinate and infect the leaf. The plants were then transferred to a greenhouse for disease to develop. When disease symptoms were fully expressed on the 1st leaves of untreated plants, infection levels were assessed on a scale of 0 to 100 percent disease severity. Percent disease control was calculated using the ratio of disease severity on treated plants relative to untreated plants.

Rhynchosporium commune = assay: Leaf blotch of barley, whole-plant fungicidal activity (RHYNSE); assay type: in vivo; settings: 24 h, 1DP (1 day protectant), read-out: % Disease Control Rating RHYNSE
Description: Technical grades of materials were dissolved in acetone, which were then mixed with nine volumes of water (H2O) containing 110 ppm Triton X-100. The fungicide solutions were applied onto wheat seedlings using an automated booth sprayer to run-off. All sprayed plants were allowed to air dry prior to further handling. All fungicides were evaluated using the aforementioned method for their activity vs. all target diseases, unless stated otherwise. Example D: Evaluation of Fungicidal Activity: Leaf Blotch of Barley (Rhynchosporium commune; Bayer Code […]) Barley plants (variety 'Harrington') were grown from seed in a greenhouse in soil-less potting mix until the first leaf was fully emerged, with 7-10 seedlings per pot. These plants were inoculated with an aqueous spore suspension of Rhynchosporium commune after fungicide treatments. After inoculation, the plants were kept in a dark dew room with 100% relative humidity for two days to permit spores to germinate and infect the leaf. The plants were then transferred to a greenhouse for disease to develop. Fungicide formulation and application were made as described in Example A. Disease assessment was conducted as described in Example A.

Puccinia triticina = assay: Wheat brown rust, whole-plant fungicidal activity (PUCCRT); assay type: in vivo, Puccinia triticina on wheat plants (variety 'Yuma'); settings: 24 h, 1DP (1 day protectant), read-out: % Disease Control Rating PUCCRT
Description: Technical grades of materials were dissolved in acetone, which were then mixed with nine volumes of water (H2O) containing 110 ppm Triton X-100. The fungicide solutions were applied onto wheat seedlings using an automated booth sprayer to run-off. All sprayed plants were allowed to air dry prior to further handling. All fungicides were evaluated using the aforementioned method for their activity vs. all target diseases, unless stated otherwise.
Example B: Evaluation of Fungicidal Activity: Wheat Brown Rust (Puccinia triticina; Synonym: Puccinia recondita f sp. tritici; Bayer Code PUCCRT)
Wheat plants (variety ‘Yuma’) were grown from seed in a greenhouse in soil-less potting mix until the first leaf was fully emerged, with 7-10 seedlings per pot. These plants were inoculated with an aqueous spore suspension of Puccinia triticina after fungicide treatments. After inoculation, the plants were kept in a dark dew room with 100% relative humidity overnight to permit spores to germinate and infect the leaf. The plants were then transferred to a greenhouse for disease to develop. Fungicide formulation, application and disease assessment followed the procedures as described in Example A.

| SMILES | pest or weed control at 200 ppm (Phakopsora pachyrhizi; 24 h, 1DP (1 day protectant)) [%] | pest or weed control at 200 ppm (Phakopsora pachyrhizi; 72 h, 3DC (3 day curative)) [%] | pest or weed control at 200 ppm (Zymoseptoria tritici; 24 h, 1DP (1 day protectant)) [%] | pest or weed control at 200 ppm (Zymoseptoria tritici; 72 h, 3DC (3 day curative)) [%] | pest or weed control at 200 ppm (Rhynchosporium commune) [%] | pest or weed control at 200 ppm (Puccinia triticina) [%] |
| --- | --- | --- | --- | --- | --- | --- |
| Cc1cc(C(=O)CC2CCCCC2)c(C)cc1/N=C/N1CCCCC1 [Compound 42] | > 85 | > 85 |  |  |  |  |
| Cc1cc(C(=O)CC2CCCCC2)c(C)cc1/N=C/N(C)C [Compound 57] | > 85 | > 85 | 50 to 85 | < 20 | < 20 | > 85 |
| Cc1cc(C(=O)CC2CCCCC2)c(C)cc1/N=C(\S)N(C)C(C)C [Compound 47] | > 85 | > 85 | > 85 | < 20 | 20 to 50 | > 85 |
| Cc1cc(C(=O)CC2CCCCC2)c(C)cc1/N=C/N1CCCC1 [Compound 41] | > 85 | > 85 |  |  |  |  |
| CCN(C)/C=N/c1cc(C)c(C(=O)Cc2ccc(F)cc2)cc1C [Compound 68] | > 85 | > 85 | > 85 | < 20 | > 85 | > 85 |
| CCN(C)/C=N/c1cc(C)c(C(=O)Cc2c(F)cc(F)cc2F)cc1OC [Compound 89] | 50 to 85 | 20 to 50 | < 20 | < 20 | 20 to 50 | > 85 |
| Cc1cc(C(=O)CC2CCCCC2)c(C)cc1/N=C(\S)N(C)C1CC1 [Compound 54] | > 85 | 50 to 85 | > 85 | < 20 | < 20 | > 85 |
| CCN(C)/C=N/c1cc(C)c(C(=O)Cc2ccc3c(c2)CCC3)cc1C [Compound 71] | > 85 | > 85 | 20 to 50 | < 20 | > 85 | > 85 |
| Cc1cc(C(=O)CC2CCCC2)c(C)cc1/N=C/N1CCCCC1 [Compound 80] | > 85 | > 85 | 50 to 85 | < 20 | > 85 | > 85 |
| CCN(C)/C=N/c1cc(C)c(C(=O)Cc2cccc(OC(F)(F)F)c2)cc1C [Compound 34] | > 85 | > 85 | 50 to 85 | < 20 | > 85 | > 85 |
| Cc1cc(C(=O)CC2CCCCC2)c(C)cc1/N=C/N(C)CC(F)(F)F [Compound 38] | < 20 | < 20 | < 20 | < 20 | < 20 | < 20 |
| Cc1cc(C(=O)CC2CCCCC2)c(C)cc1/N=C/N(C)C1CCCCC1 [Compound 40] | < 20 | < 20 |  |  |  |  |
| Cc1cc(C(=O)Cc2c(F)cc(F)cc2F)c(C)cc1/N=C1\CCCCN1C [Compound 88] | 50 to 85 | > 85 | < 20 | < 20 | < 20 | 50 to 85 |
| Cc1cc(C(=O)CC2CCCCC2)c(C)cc1/N=C/N1CCOCC1 [Compound 43] | < 20 | < 20 |  |  |  |  |
| CCN(C)/C=N/c1ccc(C(=O)Cc2c(F)cc(F)cc2F)cc1C [Compound 104] | 50 to 85 | > 85 |  |  |  | > 85 |
| C=CCN(C)/C=N/c1cc(C)c(C(=O)CC2CCCCC2)cc1C [Compound 39] | 50 to 85 | > 85 |  |  |  |  |
| CCN(C)/C=N/c1ccc(C(=O)C2CCC2)c(C)c1 [Compound 101] | < 20 | < 20 |  |  |  | < 20 |
| CCN(C)/C=N/c1cc(OC)c(C(=O)C2CCC2)cc1C [Compound 99] | > 85 | > 85 |  |  |  | > 85 |
| CCN(C)/C=N/c1ccc(C(=O)CC2CCCC2)cc1 [Compound 97] | 50 to 85 | 50 to 85 |  |  |  | 50 to 85 |
| CCN(C)/C=N/c1cc(C(F)(F)F)c(C(=O)C2CCC2)cc1C [Compound 98] | 20 to 50 | 20 to 50 |  |  |  | < 20 |
| CCN(C)/C=N/c1cc(C)c(C(=O)C2CCC2)cc1C(F)(F)F [Compound 100] | > 85 | > 85 |  |  |  | > 85 |
| CCN(C)/C=N/c1cc(C)c(C(=O)C2CCC2)cc1OC [Compound 103] | 20 to 50 | > 85 |  |  |  | 50 to 85 |
| Cc1cc(C(=O)CC2CCCCC2)c(C)cc1/N=C/N(C)c1ccccc1 [Compound 44] | < 20 | < 20 |  |  |  |  |
| CCN(C)/C=N/c1cc(C)c(C(=O)C2CCC2)cc1F [Compound 102] | 50 to 85 | > 85 |  |  |  | > 85 |
| CCN(C)/C=N/c1ccc(C(=O)C2CCC2)cc1C [Compound 95] | 20 to 50 | 20 to 50 |  |  |  | > 85 |
